The record followed here is PubChem BioAssay (NCI).

The term TGI denotes the concentration at which net growth stops. Higher therefore signals lower sensitivity of the cells.

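These data come from cells grown in 96-well plates and exposed to compound for 48 hours at five concentrations. At the TGI there is no net growth.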

Some test systems named below: MDA-MB-231 breast; NCI-H460 lung; HT29 colon; KM12 colon; OVCAR-5 ovarian; COLO 205 colon; A549 NSCLC; A498 renal; RPMI-8226 leukemia; NCI-H23 lung; UACC-62 melanoma.
What all share (experiment): DTP human tumour cell line panel, 48 h

As to `O=[N+]([O-])c1ccc(C(=S)Nc2ccccc2)o1`, the TGI in the test with MDA-MB-231 breast came out at 8.06 µM; in the test on NCI-H460 lung, 12.1 µM; with HT29 colon, 5.86 µM; in the test on KM12 colon, 6.88 µM; with OVCAR-5 ovarian, 17.6 µM; with COLO 205 colon it was 2.79 µM. The TGI in the test on A549 NSCLC came to 22.4 µM; in the test on A498 renal, 32.2 µM; with RPMI-8226 leukemia, 4.9 µM; in the test with NCI-H23 lung it was 12.4 µM; in the test with UACC-62 melanoma, 11.4 µM.
On to `O=C(/C=C/c1ccc(Oc2cc(C(=O)/C=C/c3ccc(O)cc3)c(O)cc2O)cc1)c1ccc(O)cc1O`, for which the concentration for total growth inhibition (TGI) in the test with MDA-MB-231 breast was over 100 µM; with NCI-H460 lung, 29.8 µM; with HT29 colon, 3.57 µM; with KM12 colon, 6.64 µM; in the test on OVCAR-5 ovarian it was 16.7 µM; in the test with COLO 205 colon, 6.08 µM. For the same compound, the TGI in the test with A549 NSCLC came to 99.5 µM; with A498 renal, 14.1 µM; in the test with RPMI-8226 leukemia, 8.09 µM; in the test with NCI-H23 lung, 28.6 µM; in the test with UACC-62 melanoma it was 13 µM.
`O=C(NC1CCN(Cc2ccccc2)CC1)c1ccc(I)cc1`: the TGI with MDA-MB-231 breast, in the test with NCI-H460 lung, in the test on HT29 colon, in the test with KM12 colon, in the test on OVCAR-5 ovarian and in the test with COLO 205 colon was over 100 µM in each case. For the same compound, the TGI in the test on A549 NSCLC, in the test with A498 renal, in the test with RPMI-8226 leukemia, in the test with NCI-H23 lung and in the test on UACC-62 melanoma was over 100 µM each time.
For the compound `c1cc2nnc1SCCCSc1ccc(nn1)SCCCS2`, the TGI in the test with MDA-MB-231 breast was over 100 µM; in the test on NCI-H460 lung it was over 100 µM; with HT29 colon, over 100 µM; in the test on KM12 colon, over 100 µM; with OVCAR-5 ovarian, over 100 µM; in the test with COLO 205 colon, over 81.3 µM. Further, the TGI with A549 NSCLC is over 100 µM; in the test on A498 renal, over 100 µM; in the test on RPMI-8226 leukemia it was over 100 µM; in the test on NCI-H23 lung it was over 100 µM; in the test on UACC-62 melanoma, over 77.6 µM.
Consider `O=C1CSC2(CC(/C=C/c3cccc([N+](=O)[O-])c3)=NN2c2cccc(S(=O)(=O)O)c2)N1c1nc2ccccc2s1` (stereo not drawn), for which the TGI in the test on MDA-MB-231 breast is 43.5 µM; with NCI-H460 lung, 63.2 µM; in the test on HT29 colon it was over 100 µM; in the test with KM12 colon, 42.2 µM; in the test on OVCAR-5 ovarian, 52.1 µM; in the test on COLO 205 colon it was over 100 µM. Besides, the TGI in the test on A549 NSCLC stood at 69.2 µM; in the test on A498 renal, 52.5 µM; in the test with RPMI-8226 leukemia, 39.2 µM; in the test with NCI-H23 lung, 43.4 µM; in the test with UACC-62 melanoma, 45.5 µM.
Take `COc1ccc(N2C(=O)/C(=C\c3cc(OC)c(OC)c(OC)c3)SC2c2ccccc2)cc1` (stereo not drawn): the TGI with MDA-MB-231 breast, in the test on NCI-H460 lung, in the test with HT29 colon, with KM12 colon, in the test with OVCAR-5 ovarian and with COLO 205 colon was over 100 µM in each case. Further, the TGI in the test with A549 NSCLC, in the test with A498 renal, in the test on RPMI-8226 leukemia, in the test on NCI-H23 lung and with UACC-62 melanoma was over 100 µM throughout.
On to `NC(=O)C(=CNC(=S)Nc1ccccc1)C(N)=O`, for which the TGI in the test on MDA-MB-231 breast, with NCI-H460 lung, with HT29 colon, with KM12 colon, in the test on OVCAR-5 ovarian and in the test on COLO 205 colon was over 100 µM each time. Moreover, the TGI with A549 NSCLC, with A498 renal, with RPMI-8226 leukemia, in the test with NCI-H23 lung and in the test on UACC-62 melanoma was over 100 µM in each case.
Turning to `CCC1OC2C(CC=C(C)C)=C3OC(C)(O)C(C)(CC)C(OC(C)=O)C3=C3OC(=O)C=C1C32` (stereo not drawn), the TGI worked out at 36.7 µM with MDA-MB-231 breast; 84.6 µM in the test on NCI-H460 lung; 53.1 µM in the test with HT29 colon; 50 µM in the test with KM12 colon; 57.9 µM with OVCAR-5 ovarian; 70.9 µM with COLO 205 colon. For the same compound, the TGI in the test on A549 NSCLC is over 100 µM; with A498 renal it was over 100 µM; with RPMI-8226 leukemia, over 100 µM; with NCI-H23 lung it was 75.5 µM; in the test on UACC-62 melanoma, 42.1 µM.
On to `COC(=O)c1cc2c(c3c1CC(Cc1ccccc1)C3=O)CCC2` (stereo not drawn), for which the TGI was over 100 µM in the test on MDA-MB-231 breast; over 100 µM in the test with NCI-H460 lung; over 100 µM with HT29 colon; 41.8 µM with KM12 colon; over 100 µM with OVCAR-5 ovarian; over 100 µM in the test with COLO 205 colon. Besides, the TGI with A549 NSCLC, in the test with A498 renal, in the test on RPMI-8226 leukemia, with NCI-H23 lung and in the test with UACC-62 melanoma was over 100 µM throughout.
Take `COc1cc2c(c(O)c1OC)C(=O)[C@@H]1CCC(=O)N1C2`: the TGI with MDA-MB-231 breast, in the test with NCI-H460 lung, in the test on HT29 colon, in the test on KM12 colon, in the test with OVCAR-5 ovarian and with COLO 205 colon was over 100 µM in each case. Also, the TGI in the test on A549 NSCLC, in the test on A498 renal, in the test with RPMI-8226 leukemia, with NCI-H23 lung and with UACC-62 melanoma was over 100 µM in each case.
On to `Clc1cc(Cl)cc(N=C/C=C/Nc2cc(Cl)cc(Cl)c2)c1`, for which the TGI with MDA-MB-231 breast is 30.2 µM; in the test with NCI-H460 lung it was 43.5 µM; with HT29 colon, 28.5 µM; in the test with KM12 colon it was 30.2 µM; in the test with OVCAR-5 ovarian it was 51.9 µM; with COLO 205 colon, 30.2 µM. For the same compound, the TGI in the test with A549 NSCLC was 43.1 µM; with A498 renal, 57.3 µM; with RPMI-8226 leukemia, 76.9 µM; in the test on NCI-H23 lung it was 30.6 µM; with UACC-62 melanoma, 48 µM.
As to `O=C(c1cccs1)N(C(=S)OCCOc1ccccc1)c1ccccc1`, the TGI was 61.9 µM in the test with MDA-MB-231 breast; over 100 µM in the test with NCI-H460 lung; 96.5 µM with HT29 colon; 81 µM with KM12 colon; 70.2 µM in the test on OVCAR-5 ovarian; 42.4 µM in the test on COLO 205 colon. Moreover, the TGI is over 100 µM with A549 NSCLC; 50.5 µM with A498 renal; 53.9 µM in the test on RPMI-8226 leukemia; 42.3 µM in the test with NCI-H23 lung; 37.7 µM with UACC-62 melanoma.
With `CCOC(=O)NNC(=O)NCc1cccc(CNC(=O)NNC(=O)OCC)c1`, the TGI with MDA-MB-231 breast, in the test on NCI-H460 lung, in the test with HT29 colon, with KM12 colon, in the test on OVCAR-5 ovarian and in the test with COLO 205 colon was over 100 µM in each case. Moreover, the TGI in the test with A549 NSCLC, with A498 renal, in the test with RPMI-8226 leukemia, in the test with NCI-H23 lung and in the test on UACC-62 melanoma was over 100 µM in each case.
Consider `C=C1CC(c2ccc(OCCCN3C(=O)c4ccccc4C3=O)cc2)OC1=O` (stereo not drawn), for which the TGI in the test on MDA-MB-231 breast stood at 13 µM; in the test with NCI-H460 lung it was 8.42 µM; with HT29 colon it was 9.24 µM; in the test on KM12 colon, 16.8 µM; in the test with OVCAR-5 ovarian, 25.5 µM; with COLO 205 colon it was 6.37 µM. Moreover, the TGI in the test with A549 NSCLC worked out at 39.2 µM; with A498 renal it was 3.56 µM; in the test with RPMI-8226 leukemia, 3.68 µM; in the test on NCI-H23 lung it was 9.34 µM; in the test with UACC-62 melanoma, 4.75 µM.
In the case of `Nc1ncnc2oc(C3OC(COC(=O)c4ccccc4)C(OC(=O)c4ccccc4)C3OC(=O)c3ccccc3)nc12` (stereo not drawn), the TGI in the test on MDA-MB-231 breast, in the test on NCI-H460 lung, with HT29 colon, in the test with KM12 colon, in the test with OVCAR-5 ovarian and with COLO 205 colon was over 100 µM throughout. Besides, the TGI in the test on A549 NSCLC was over 100 µM; with A498 renal, 82.6 µM; in the test on RPMI-8226 leukemia, over 100 µM; in the test with NCI-H23 lung it was over 100 µM; in the test on UACC-62 melanoma it was over 100 µM.
Consider `Cc1cc(N(CCC#N)CCC#N)ccc1/C(N=Nc1cccc(Cl)c1)=N/NC(=O)c1cc(Cl)ccc1O`, for which the TGI is 49 µM with MDA-MB-231 breast; 31.9 µM in the test with NCI-H460 lung; 44.2 µM in the test with HT29 colon; 35.4 µM with KM12 colon; over 100 µM with OVCAR-5 ovarian; 17.8 µM in the test with COLO 205 colon. Further, the TGI turned out to be 75.7 µM with A549 NSCLC; 53.1 µM with A498 renal; 63.5 µM in the test on RPMI-8226 leukemia; 31.1 µM in the test on NCI-H23 lung; 28.9 µM in the test with UACC-62 melanoma.
As to `COC(=O)c1ccc(S)c(S(=O)(=O)Nc2n[nH]c(N)n2)c1`, the TGI in the test with MDA-MB-231 breast, in the test with NCI-H460 lung, in the test on HT29 colon, in the test with KM12 colon, in the test on OVCAR-5 ovarian and with COLO 205 colon was over 100 µM in each case. For the same compound, the TGI in the test on A549 NSCLC, in the test on A498 renal, with RPMI-8226 leukemia, with NCI-H23 lung and in the test on UACC-62 melanoma was over 100 µM throughout.
Regarding `COC(=O)c1ccc2c(c1)S/C(=C/c1ccc3ccc4cccc5ccc1c3c45)S2`, the TGI is over 100 µM in the test with MDA-MB-231 breast; over 100 µM in the test with NCI-H460 lung; over 100 µM in the test with HT29 colon; 57.3 µM in the test on KM12 colon; over 100 µM in the test with OVCAR-5 ovarian; over 100 µM with COLO 205 colon. Besides, the TGI with A549 NSCLC was over 100 µM; with A498 renal, over 100 µM; in the test on RPMI-8226 leukemia, over 100 µM; in the test on NCI-H23 lung, 52.7 µM; in the test with UACC-62 melanoma, 61 µM.
